Reference: PMC6337588, “Multi-Target Cinnamic Acids for Oxidative Stress and Inflammation: Design, Synthesis, Biological Evaluation and Modeling Studies” (Molecules, 2018)
“And” between values parts separate entries of the source, which are not always exact repeats. Equal values may be shown once.

Columns and labels:
[1] = ABTS+• decolorization assay; assay type: biochemical; conditions: 1 min, 734 nm
Method: No role for lipophilicity was found. Oxidation of ABTS with potassium persulfate generates directly the ABTS radical cation (ABTS^+•) with no involvement of an intermediary radical, which is then reduced upon adding electron-donating antioxidants.
In order to produce the ABTS radical cation (ABTS^+•), ABTS stock solution in water (7 mM) was mixed with potassium persulfate (2.45 mM) and left in the dark at room temperature for 12–16 h before use. Our published experimental technique was used (Table 2). The results are recorded after 1 min of the mixing solutions at 734 nm. The results were compared to the appropriate standard inhibitor Trolox.

[2] = Experimental lipophilicity as RM values by reversed phase TLC (RPTLC); assay type: physicochemical; conditions: methanol/water 77/23 with 0.1% acetic acid, 24 °C, average of at least 5 measurements
Source text: Lipophilicity is a physicochemical property correlated with the biological activity. Lipophilicity influences ligand-target binding interactions, solubility, absorption, distribution, bioavailability, metabolism and elimination (ADME) and toxicological outcomes. The lipophilicity of the novel cinnamic acids was experimentally measured as RM values using a reverse phase thin layer chromatography (RPTLC) method. This is acknowledged as a reliable, fast and convenient approach for expressing lipophilicity (Table 1). RM relates to the thermodynamic Rf value in a logarithmic form. Bate-Smith and Westall firstly determined lipophilicity as RM values in 1950 [31]. The Br-substituted derivatives 1i–7i are more lipophilic than the OH-substituted ones 1ii–7ii which can be easily explained by their structural characteristics.
Reversed phase TLC (RPTLC) was performed on silica gel plates impregnated with 55% (v/v) liquid paraffin in light petroleum ether. The mobile phase was a methanol/water mixture (77/23, v/v) containing 0.1% of acetic acid. The plates were developed in closed chromatography tanks saturated with the mobile phase at 24 °C. Spots were detected under UV light. RM values were determined from the corresponding Rf values (from five individual measurements) using the equation RM = log[(1/Rf) − 1] [17, 18, 28].

[3] = Competition with DMSO for hydroxyl radicals (Fe3+/ascorbic acid system); assay type: biochemical; conditions: hydroxyl radical scavenging
Method: Competition of the novel substituted acids with DMSO for hydroxyl radicals was measured. Hydroxyl radicals were generated using the Fe^3+/ascorbic acid system and expressed as a percentage inhibition of formaldehyde production in the presence of each compound at 100 μM (Table 2). All the synthesized derivatives strongly scavenge hydroxyl radicals at 100 μM in comparison to the reference compound Trolox.
The hydroxyl radicals generated by the Fe^3+/ascorbic acid system, were detected by the determination of formaldehyde produced from the oxidation of DMSO (Table 2). Trolox was used as reference compound [17, 18, 28].

[4] = Reducing activity of the stable radical DPPH; assay type: biochemical
Method: The substituted acids were monitored for the antioxidant activity by the use of the stable 2,2-diphenyl-1-picrylhydrazyl radical (DPPH) at concentration 50 µM and 100 µM after 20 and 60 min (Table 1). In this assay the DPPH radical is reduced by single electron transfer from the antioxidant. Strong antioxidants are the phenoxide anions from phenolic compounds like catechol and derivatives, such as nordihydroguaretic acid (NDGA), the reference compound. The compounds presented medium reducing abilities from 29–61%, due to steric reasons; small differences were found among the compounds with time and concentration. 4-Br-substituted-3 phenyl acetic acid derivatives (Series I) are equipotent to 4-OH-substituted-3 phenyl acetic acid derivatives (Series II). No differences were observed between 4i and 5i and 4ii and 5ii.
To a solution of DPPH in absolute ethanol an equal volume of the compounds dissolved in DMSO was added. The final concentrations of the measured solutions of the novel acids were 50 and 100 µM starting from a stock solution (10 mM) in DMSO. The absorbance was recorded at 517 nm, after 20 and 60 min at room temperature (Table 1).

[5] = target: T1, soybean lipoxygenase (Glycine max, UniProt P08170); experiment: Soybean lipoxygenase inhibition in vitro; assay type: biochemical; conditions: sodium linoleate 0.1 mM, 234 nm, read-out: LOX IC50
T1 construct: purchased Sigma Chemical, Co. (St. Louis)
T1 sequence (P08170 1-839): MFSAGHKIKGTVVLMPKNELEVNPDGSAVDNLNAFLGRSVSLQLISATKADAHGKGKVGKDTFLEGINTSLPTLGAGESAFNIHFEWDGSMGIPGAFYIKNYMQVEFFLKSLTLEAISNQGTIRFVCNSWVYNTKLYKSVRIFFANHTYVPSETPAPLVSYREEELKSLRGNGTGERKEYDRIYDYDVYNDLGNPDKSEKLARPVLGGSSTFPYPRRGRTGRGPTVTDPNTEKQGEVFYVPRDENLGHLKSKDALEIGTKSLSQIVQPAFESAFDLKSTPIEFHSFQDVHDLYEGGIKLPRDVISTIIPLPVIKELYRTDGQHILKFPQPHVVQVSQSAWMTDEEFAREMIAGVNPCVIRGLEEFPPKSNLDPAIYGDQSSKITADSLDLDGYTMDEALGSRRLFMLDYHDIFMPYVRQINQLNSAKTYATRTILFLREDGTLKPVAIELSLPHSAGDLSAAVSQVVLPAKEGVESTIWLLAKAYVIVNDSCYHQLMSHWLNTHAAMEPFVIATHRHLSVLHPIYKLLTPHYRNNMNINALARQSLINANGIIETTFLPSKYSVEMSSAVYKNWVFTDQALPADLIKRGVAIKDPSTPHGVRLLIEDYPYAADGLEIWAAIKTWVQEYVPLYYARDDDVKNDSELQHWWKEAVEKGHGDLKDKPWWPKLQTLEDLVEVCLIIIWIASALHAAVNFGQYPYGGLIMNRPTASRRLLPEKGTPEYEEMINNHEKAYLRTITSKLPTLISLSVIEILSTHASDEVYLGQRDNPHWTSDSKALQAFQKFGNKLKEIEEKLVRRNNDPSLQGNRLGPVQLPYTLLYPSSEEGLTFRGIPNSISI
Method: Many research groups have used readily obtainable soybean lipoxygenase, which is a homologue of mammalian lipoxygenase and well studied. Due to its availability and its well-characterised crystal structure, soybean LOX was selected to be used in this study.
In vitro study was evaluated as reported previously by our group. The tested compounds were incubated at room temperature with sodium linoleate (0.1 mM) and 0.2 mL of enzyme solution (1/9 × 104 w/v in saline). The method was based to the conversion of sodium linoleate to 13-hydroperoxylinoleic acid at 234 nm. […] In order to determine the IC50 values different concentrations were used.

[6] = Inhibition of linoleic acid peroxidation (AAPH); assay type: biochemical; conditions: anti-lipid peroxidation
Source text: We also used water-soluble 2,2′-[…](2-amidinopropane) hydrochloride (AAPH) for the generation of free radicals. AAPH has been extensively used as a clean and controllable source of thermally produced alkylperoxyl free radicals. The peroxyl radicals produced by the action of AAPH show total similarity to cellular activities such as lipid peroxidation. […] It seems that the presence of 3,5-di-tert-butyl-group greatly enhances protection against lipid peroxidation (6i/ii and 7i/ii followed by 3ii and 5ii). The lipid peroxidation inhibitory activity seems to be concentration dependent.
2,2’-Azobis(2-amidinopropane) dihydrochloride (AAPH) was used as a free radical initiator to start the oxidation reaction. The method was based on the production of conjugated diene hydroperoxide by oxidation of linoleic acid at 234 nm expressed as an increased absorption. Trolox was used as reference compound (93%) (Table 2).

| Compound | ABTS+•% 100 µM [1] | RM (±SD) [2] | HO•% 100 µM [3] [%] | RA% 50 µM 20 min [4] [%] | RA% 50 µM 60 min [4] [%] | RA% 100 µM 20 min [4] [%] | RA% 100 µM 60 min [4] [%] | IC50 [5] [µM] | AAPH% 50 µM [6] [%] | AAPH% 100 µM [6] [%] | melting point [°C] | AAPH lipid peroxidation inhibition at 10 μΜ ([6]; 10 μΜ) [%] |
| --- | --- | --- | --- | --- | --- | --- | --- | --- | --- | --- | --- | --- |
| O=C(O)C(=Cc1ccc(OCc2ccc(Br)cc2)cc1)c1ccc(Br)cc1 [Compound 2i, 3-(4-((4-Bromobenzyl)oxy)phenyl)-2-(4-bromophenyl)acrylic acid] | 32% | 0.605 (0.016) | 95 | 35 | 34 | 37 | 40 | 76 | 48 | 96 |  |  |
| O=C(O)C(=Cc1ccc(OCc2ccc(Br)cc2)cc1)c1ccc(O)cc1 [Compound 2ii, 3-(4-((4-Bromobenzyl)oxy)phenyl)-2-(4-hydroxyphenyl)acrylic acid] | 47% | 0.061 (0.007) | 99 | 36 | 37 | 43 | 56 | 77 | 49 | 87 |  |  |
| CN(C)c1ccc(C=CC=C(C(=O)O)c2ccc(Br)cc2)cc1 [Compound 3i, 2-(4-Bromophenyl)-5-(4-(dimethylamino)phenyl)penta-2,4-dienoic acid] | 83.4% and 83% | 0.582 (0.037) | 100 | 34 | 37 | 48 | 51 | 7.4 | 43 | 88 | 120 to 121 |  |
| CC(=Cc1ccccc1)C=C(C(=O)O)c1ccc(Br)cc1 [Compound 5i, 2-(4-Bromophenyl)-4-methyl-5-phenylpenta-2,4-dienoic acid] | 30% | 0.683 (0.015) | 82 | 33 | 33 | 36 | 38 | 77.5 | 10 | 98 | 128 to 129 | 9.6 |
| CC(C)(C)c1cc(C=C(C(=O)O)c2ccc(Br)cc2)c(O)c(C(C)(C)C)c1 [Compound 6i, 2-(4-Bromophenyl)-3-(3,5-di-tert-butyl-2-hydroxyphenyl)acrylic acid] | 53% | 0.480 (0.035) | 100 | 38 | 36 | 44 | 39 | 60 | 56 | 100 | 168 to 170 |  |
| CC(Cc1ccc(O)c(O)c1)C(C)Cc1ccc(O)c(O)c1 (stereo not shown) [NDGA, nordihydroguaretic acid, reference compound] |  |  |  | 81 | 83 | 87 | 93 |  |  |  |  |  |
| Cc1c(C)c2c(c(C)c1O)CCC(C)(C(=O)O)O2 (stereo not shown) [Trolox, reference compound] | 88% |  | 73 |  |  |  |  |  |  | 93 |  |  |
